In ChEMBL document CHEMBL5724914, “Linking interpersonal differences in gut microbiota composition and drug biotransformation activity” (2024):

Legend:
[1] = (§1) The drug is tested on Z-029 corresponding to rat gut metagenome with ENA study accession number: PRJEB37062 and ENA sample accession number: ERS12561828 for biotransformation under anaerobic condition. The drug concentrations were measured over 9 timepoints collected between 0 and 24 hours of incubation by liquid-chromatography-coupled mass spectrometry (LC–MS); details: 2 µM
[2] = as §1, with “on WLS-090” for “on Z-029”, “to human” for “to rat”, “number: ERS12561753” for “number: ERS12561828”; details: 2 µM
[3] = as §1, with “on Z-030” for “on Z-029”, “to mouse” for “to rat”, “number: ERS12561829” for “number: ERS12561828”; details: 2 µM
[4] = as §1, with “Z-014” for “Z-029”, “ERS12561814” for “ERS12561828”; details: 2 µM
[5] = human gut metagenome, 24 h, 2 µM
[6] = human gut metagenome, 24 h, 2 µM; remark: listed apart in the source
[7] = as §1, with “on Z-018” for “on Z-029”, “to pig” for “to rat”, “number: ERS12561817” for “number: ERS12561828”; details: 2 µM
[8] = human gut metagenome, 24 h, 2 µM; remark: listed apart in the source
[9] = human gut metagenome, 24 h, 2 µM; remark: listed apart in the source
Also: call rule not given here.

SMILES: CC(C)c1nc(N(C)S(C)(=O)=O)nc(-c2ccc(F)cc2)c1/C=C/[C@@H](O)C[C@@H](O)CC(=O)[O-].CC(C)c1nc(N(C)S(C)(=O)=O)nc(-c2ccc(F)cc2)c1/C=C/[C@@H](O)C[C@@H](O)CC(=O)[O-].[Ca+2] [ROSUVASTATIN CALCIUM]
- Bacterial Biotransformation [1]: Compound NOT metabolized
- Bacterial Biotransformation [2]: Compound metabolized
- Bacterial Biotransformation [3]: Compound NOT metabolized
- Bacterial Biotransformation [4]: Compound NOT metabolized
- Bacterial Biotransformation [5]: Compound NOT metabolized
- Bacterial Biotransformation [6]: Compound NOT metabolized
- Bacterial Biotransformation [7]: Compound NOT metabolized
- Bacterial Biotransformation [8]: Compound metabolized
- Bacterial Biotransformation [9]: Compound metabolized

SMILES: CC(C)NCC(O)COc1ccc(CC(N)=O)cc1 (stereo not given) [ATENOLOL]
- Bacterial Biotransformation [1]: Compound NOT metabolized
- Bacterial Biotransformation [2]: Compound metabolized
- Bacterial Biotransformation [3]: Compound NOT metabolized
- Bacterial Biotransformation [4]: Compound NOT metabolized
- Bacterial Biotransformation [5]: Compound NOT metabolized
- Bacterial Biotransformation [6]: Compound NOT metabolized
- Bacterial Biotransformation [7]: Compound NOT metabolized
- Bacterial Biotransformation [8]: Compound metabolized
- Bacterial Biotransformation [9]: Compound NOT metabolized

SMILES: COc1ccc2cc([C@H](C)C(=O)O)ccc2c1 [NAPROXEN]
- Bacterial Biotransformation [1]: Compound NOT metabolized
- Bacterial Biotransformation [2]: Compound metabolized
- Bacterial Biotransformation [3]: Compound NOT metabolized
- Bacterial Biotransformation [4]: Compound NOT metabolized
- Bacterial Biotransformation [5]: Compound NOT metabolized
- Bacterial Biotransformation [6]: Compound NOT metabolized
- Bacterial Biotransformation [7]: Compound NOT metabolized
- Bacterial Biotransformation [8]: Compound metabolized
- Bacterial Biotransformation [9]: Compound NOT metabolized

SMILES: CCOC(=O)[C@H](CCc1ccccc1)N[C@@H](C)C(=O)N1Cc2ccccc2C[C@H]1C(=O)O
- Bacterial Biotransformation [1]: Compound NOT metabolized
- Bacterial Biotransformation [2]: Compound metabolized
- Bacterial Biotransformation [3]: Compound NOT metabolized
- Bacterial Biotransformation [4]: Compound NOT metabolized
- Bacterial Biotransformation [5]: Compound NOT metabolized
- Bacterial Biotransformation [6]: Compound metabolized
- Bacterial Biotransformation [7]: Compound NOT metabolized
- Bacterial Biotransformation [8]: Compound metabolized
- Bacterial Biotransformation [9]: Compound metabolized

SMILES: C#C[C@]1(OC(C)=O)CC[C@H]2[C@@H]3CCC4=C/C(=N/O)CC[C@@H]4[C@H]3CC[C@@]21CC [NORGESTIMATE]
- Bacterial Biotransformation [1]: Compound metabolized
- Bacterial Biotransformation [2]: Compound metabolized
- Bacterial Biotransformation [3]: Compound metabolized
- Bacterial Biotransformation [4]: Compound NOT metabolized
- Bacterial Biotransformation [5]: Compound NOT metabolized
- Bacterial Biotransformation [6]: Compound metabolized
- Bacterial Biotransformation [7]: Compound NOT metabolized
- Bacterial Biotransformation [8]: Compound metabolized
- Bacterial Biotransformation [9]: Compound metabolized

SMILES: CN(C/C=C/C#CC(C)(C)C)Cc1cccc2ccccc12 [TERBINAFINE]
- Bacterial Biotransformation [1]: Compound NOT metabolized
- Bacterial Biotransformation [2]: Compound NOT metabolized
- Bacterial Biotransformation [3]: Compound NOT metabolized
- Bacterial Biotransformation [4]: Compound NOT metabolized
- Bacterial Biotransformation [5]: Compound NOT metabolized
- Bacterial Biotransformation [6]: Compound NOT metabolized
- Bacterial Biotransformation [7]: Compound NOT metabolized
- Bacterial Biotransformation [8]: Compound NOT metabolized
- Bacterial Biotransformation [9]: Compound metabolized

SMILES: CN1CCC(OC(c2ccccc2)c2ccccc2)CC1
- Bacterial Biotransformation [1]: Compound NOT metabolized
- Bacterial Biotransformation [2]: Compound metabolized
- Bacterial Biotransformation [3]: Compound NOT metabolized
- Bacterial Biotransformation [4]: Compound NOT metabolized
- Bacterial Biotransformation [5]: Compound NOT metabolized
- Bacterial Biotransformation [6]: Compound metabolized
- Bacterial Biotransformation [7]: Compound metabolized
- Bacterial Biotransformation [8]: Compound metabolized
- Bacterial Biotransformation [9]: Compound NOT metabolized

SMILES: CCS(=O)(=O)CCn1c([N+](=O)[O-])cnc1C [TINIDAZOLE]
- Bacterial Biotransformation [1]: Compound metabolized
- Bacterial Biotransformation [2]: Compound metabolized
- Bacterial Biotransformation [3]: Compound metabolized
- Bacterial Biotransformation [4]: Compound metabolized
- Bacterial Biotransformation [5]: Compound metabolized
- Bacterial Biotransformation [6]: Compound metabolized
- Bacterial Biotransformation [7]: Compound metabolized
- Bacterial Biotransformation [8]: Compound metabolized
- Bacterial Biotransformation [9]: Compound metabolized

SMILES: C=CC[C@@H]1/C=C(\C)C[C@H](C)C[C@H](OC)[C@H]2O[C@@](O)(C(=O)C(=O)N3CCCC[C@H]3C(=O)O[C@H](/C(C)=C/[C@@H]3CC[C@@H](O)[C@H](OC)C3)[C@H](C)[C@@H](O)CC1=O)[C@H](C)C[C@@H]2OC.O [TACROLIMUS]
- Bacterial Biotransformation [1]: Compound NOT metabolized
- Bacterial Biotransformation [2]: Compound metabolized
- Bacterial Biotransformation [3]: Compound NOT metabolized
- Bacterial Biotransformation [4]: Compound NOT metabolized
- Bacterial Biotransformation [5]: Compound NOT metabolized
- Bacterial Biotransformation [6]: Compound metabolized
- Bacterial Biotransformation [7]: Compound NOT metabolized
- Bacterial Biotransformation [8]: Compound metabolized
- Bacterial Biotransformation [9]: Compound metabolized

SMILES: CN(CCOc1ccc(CC2SC(=O)NC2=O)cc1)c1ccccn1.O=C(O)/C=C\C(=O)O (stereo not given) [ROSIGLITAZONE MALEATE]
- Bacterial Biotransformation [1]: Compound NOT metabolized
- Bacterial Biotransformation [2]: Compound metabolized
- Bacterial Biotransformation [3]: Compound NOT metabolized
- Bacterial Biotransformation [4]: Compound NOT metabolized
- Bacterial Biotransformation [5]: Compound NOT metabolized
- Bacterial Biotransformation [6]: Compound metabolized
- Bacterial Biotransformation [7]: Compound NOT metabolized
- Bacterial Biotransformation [8]: Compound metabolized
- Bacterial Biotransformation [9]: Compound NOT metabolized

SMILES: CCN1CCCC1CNC(=O)c1cc(S(=O)(=O)CC)c(N)cc1OC (stereo not given) [AMISULPRIDE]
- Bacterial Biotransformation [1]: Compound NOT metabolized
- Bacterial Biotransformation [2]: Compound metabolized
- Bacterial Biotransformation [3]: Compound NOT metabolized
- Bacterial Biotransformation [4]: Compound NOT metabolized
- Bacterial Biotransformation [5]: Compound NOT metabolized
- Bacterial Biotransformation [6]: Compound NOT metabolized
- Bacterial Biotransformation [7]: Compound NOT metabolized
- Bacterial Biotransformation [8]: Compound metabolized
- Bacterial Biotransformation [9]: Compound NOT metabolized

SMILES: COc1ccc(CN2CCNCC2)c(OC)c1OC.Cl.Cl [TRIMETAZIDINE DIHYDROCHLORIDE]
- Bacterial Biotransformation [1]: Compound NOT metabolized
- Bacterial Biotransformation [2]: Compound NOT metabolized
- Bacterial Biotransformation [3]: Compound NOT metabolized
- Bacterial Biotransformation [4]: Compound NOT metabolized
- Bacterial Biotransformation [5]: Compound NOT metabolized
- Bacterial Biotransformation [6]: Compound NOT metabolized
- Bacterial Biotransformation [7]: Compound NOT metabolized
- Bacterial Biotransformation [8]: Compound NOT metabolized
- Bacterial Biotransformation [9]: Compound NOT metabolized

SMILES: Nc1nc(N)nc(-c2cc(Cl)ccc2Cl)n1.O=C(O)/C=C\C(=O)O [IRSOGLADINE MALEATE]
- Bacterial Biotransformation [1]: Compound NOT metabolized
- Bacterial Biotransformation [2]: Compound NOT metabolized
- Bacterial Biotransformation [3]: Compound NOT metabolized
- Bacterial Biotransformation [4]: Compound NOT metabolized
- Bacterial Biotransformation [5]: Compound NOT metabolized
- Bacterial Biotransformation [6]: Compound NOT metabolized
- Bacterial Biotransformation [7]: Compound NOT metabolized
- Bacterial Biotransformation [8]: Compound metabolized
- Bacterial Biotransformation [9]: Compound NOT metabolized

SMILES: CC(=O)OCC(=O)[C@@]1(OC(C)=O)[C@@H](C)C[C@H]2[C@@H]3C[C@H](F)C4=CC(=O)C=C[C@]4(C)[C@@]3(F)[C@@H](O)C[C@@]21C [DIFLORASONE DIACETATE]
- Bacterial Biotransformation [1]: Compound NOT metabolized
- Bacterial Biotransformation [2]: Compound metabolized
- Bacterial Biotransformation [3]: Compound metabolized
- Bacterial Biotransformation [4]: Compound NOT metabolized
- Bacterial Biotransformation [5]: Compound metabolized
- Bacterial Biotransformation [6]: Compound metabolized
- Bacterial Biotransformation [7]: Compound metabolized
- Bacterial Biotransformation [8]: Compound metabolized
- Bacterial Biotransformation [9]: Compound metabolized

SMILES: C#C[C@]1(OC(C)=O)CC[C@H]2[C@@H]3CCC4=C[C@@H](OC(C)=O)CC[C@@H]4[C@H]3CC[C@@]21C [ETHYNODIOL DIACETATE]
- Bacterial Biotransformation [1]: Compound NOT metabolized
- Bacterial Biotransformation [2]: Compound metabolized
- Bacterial Biotransformation [3]: Compound metabolized
- Bacterial Biotransformation [4]: Compound metabolized
- Bacterial Biotransformation [5]: Compound metabolized
- Bacterial Biotransformation [6]: Compound metabolized
- Bacterial Biotransformation [7]: Compound metabolized
- Bacterial Biotransformation [8]: Compound metabolized
- Bacterial Biotransformation [9]: Compound metabolized
